In PMC11955804, “Histidine-rich enantiomeric peptide coacervates enhance antigen sequestration and presentation to T cells” (Chemical Science, 2025):

How the values were obtained:
[1] = Critical concentration (Ccrit) of coacervate formation; format: physicochemical; details: 1× PBS, pH 7.4; enantiomeric variants identical
Source text: Peptide synthesis and purification
The L- and D-enantiomers of (GHGLY)4, (GHGVY)4 and (GHGPY)4 peptides were purchased from GenScript and used without further modification. (GHGAY)4, (GHGFY)4, (GHGIY)4 and (GHGNY)4 were synthesized using standard Fmoc-SPPS chemistry on Rink Amide with Oxyma (Ethyl cyano(hydroxyimino) acetate) and N, N′-diisopropylcarbodiimide (DIC) as coupling agents on a Liberty Blue microwave-assisted synthesizer. Peptides were cleaved using a cocktail of trifluoroacetic acid (TFA), tri-isopropyl silane (TIS), and H2O (95:2.5:2.5) and extracted and washed in cold diethyl ether. The resulting pellet was dissolved in acetonitrile/water mixture (50:50) and frozen prior to lyophilization. Peptides were purified (~90%) using High Performance Liquid Chromatography (HPLC) on a Dionex Ultimate 3000 HPLC equipped with a diode-array detector on an Agilent Poroshell RP-C18 column (4.6 mm×150 mm), operating at a flow rate of 1 mL/min. Peaks corresponding to 220 nm were collected for MALDI -TOF mass analysis (Shimadzu MALDI-8030) using α-cyno-4-hydroxycinnamic acid matrix (Bruker Daltonics, MA).
Peptide solutions (0.25–1.5 mM) were prepared in 1×PBS at pH 7.4. Aliquots (140 µL) were pipetted into a 96-well plate and absorbance at 600 nm was measured over 24 h using a Synergy HT plate reader (Biotek, USA) at RT or 37°C with or without agitation. The pH dependence of LLPS formation was assessed in 0.1 M potassium phosphate buffer (with 150 mM NaCl) at different pH values (5.8, 6.6, 7.4, 8.0) and 1 mM peptide concentration. Similarly, 0.1 M potassium phosphate buffer (pH 7.4) with varying salt concent rations (0, 150, 250, 500, 1000 mM […]
Figure S10. Determination of Ccrit for (a) (GHGLY)4, (b) (GHGVY)4, (c) (GHGPY)4 and (d-f) their corresponding enantiomers (1 mM, 1× PBS, pH 7.4).
Table S1. Measured Ccrit values for (GHGXY)4 peptides used in this study.
(1 picture or pasted object on this page, not shown here)

HEK293T cells = assay: eGFP plasmid DNA transfection; format: cell-based; details: coacervates loaded with eGFP DNA plasmid 2.5 μg/mL; qualitative microscopy after 96 h
Experimental: findings were not OVA-specific.
Reserve University) 14,15.
Cytotoxicity and transfection assays
Untreated cells or ethanol treated cells served as controls. Cytotoxicity of all inhibitors was evaluated similarly. For transfection studies, […]
Biosystems, Catalog number: 4060; 2.5 μg/mL). Cells treated with the naked plasmid or […]
complexed with lipofectamine 2000 (3.2 µL) served as controls. GFP expression was assessed qualitatively after 96 h using a Lionheart FX automated microscope (BioTek Instruments, Inc.).
We employed TrueCut Cas9 protein for the knockout of CD55 gene using CRISPR technology, aided with chiral (GHGXY)4 peptide coacervates. The transfection of the Cas9 RNPs (protein + gRNA) was done according to manufacturer’s protocol (Invitrogen). Briefly, A549 cells were cultured in complete DMEM media (supplemented with 10% FBS and 5% Pen Strep) in T-75 flask till full confluency. Cells were then plated at a concentration of 2×10^4 cells/mL in 24 well […]
plates in DMEM media for 24 h. […]
confluent. For positive control, we mixed the TrueCutTM Cas9 protein/sgRNA in Opti-MEM media (17.8 μL) at a concentration of 12.50 μg (75 pmol; Stock 0.5 mg/mL) and 2.4 μg (75 pmol; Stock 1 nmol) for protein and sgRNA respectively, containing 50 μL LipofectamineTM Cas 9 PlusTM reagent (Total Volume: 100 μL) in a RNAse -free microcentrifuge tube. […]

DCs = assay: DQ-OVA delivery to lysosomes (fluorescence microscopy); format: cell-based, mouse; details: DQ-OVA loaded coacervates, 2.5 μg/mL DQ-OVA, fluorescence microscopy
Experimental: page 13: Flow cytometry The transfected A549 cells were washed with FACS wash buffer (FWB; 1× PBS with 10% […] Cells were washed again with FWB and then resuspended in 100 µl of PBS with eBioscience™ Fixable Viability Dye eFluor™ 506 antibody. The staining was quenched with FWB following a 20 min incubation. The cells were centrifuged, washed 2× times with FWB, and resuspended in 100 µl FWB with CD55 (DAF) Antibody (anti-human; miltenyibiotec Cat#130-126-382). After 20 min, staining was quenched, cells washed twice and resuspended in 200 µl FWB for acquisition. Single-stained cells stained with eFluor™ 506, CD55 (DAF) Antibody, were used as compensation controls. Samples were acquired using an Agilent NovoCyte 3000 flow cytometer. Data were analyzed with FlowJo version 10. […] was quantified as the percentage CD55+ cells, considering untreated cells as the negative control and Lipofectamine treated ones as the positive control. Antigen delivery to lysosomes and inhibitor effects DC 2.4 cells were cultured in RPMI-1640 (Catalog number: 11875093) medium supplemented with 10% FBS, 100 U/mL penicillin, 100 μg/mL streptomycin, and 1 mM sodium pyruvate. Cells were plated in 8-well chamber slides (5000 cells in 200 μL of media) and incubated for 24 h prior to addition of DQ-OVA loaded coacervates for 2 h, 6 h, or 24 h (final DQ-OVA concentration was 2.5 μg/mL). Cells treated with PBS or soluble OVA served as controls. Cells were then washed and fixed using 4% Paraformaldehyde (PFA) for 15 min at RT and permeabilized with 0.1% Triton X-100 for 5 min prior to nuclear staining with Hoechst stain (Catalog number: 62249, Thermo Fischer Scientific; 10 μg/mL). Cells were imaged (60×) on Lionheart FX automated microscope (BioTek Instruments, Inc.) with controlled exposure S13 page 14: parameters across two channels: eGFP and DAPI.

[2] = tested on: BMDCs overlaid with DOBW cells; assay: In vitro antigen presentation assay, MHC class II (BMDCs + DOBW hybridoma, IL-2 ELISA); details: DOBW overlay; for IL-2 levels at 4 °C compared to 37 °C controls: OVA-loaded coacervates, DCs at 4 °C, ELISA
Experimental: To test internalization mechanisms, we utilized in vitro antigen presentation assays (Fig. 4A). Here, bone marrow-derived dendritic cells (BMDCs) are treated with coacervates loaded with the model antigen ovalbumin (OVA). […] Secretion of IL-2 in response to peptide-MHC recognition is an indirect measure of coacervate uptake and can be quantified using ELISA (enzyme-linked immunosorbent assay) (Fig. 4A). […] We next used pharmacological inhibitors of endocytic mechanisms to explore mechanisms of cell entry (Fig. 4E). BMDCs were treated with inhibitors of clathrin-mediated endocytosis (chlorpromazine, CPZ),[58] dynamin-dependent endocytosis (dynasore, Dyn),[59] macropinocytosis (wortmannin, Wort),[60] cholesterol (methyl β-CD),[61] and IPA3 the regulatory domain of PAK1 (IPA-3)[62] for one h prior to antigen presentation assays.
Cellular uptake and antigen presentation assays
Uptake of coacervates by BMDCs was measured using in vitro antigen presentation assays.
BMDCs were plated in 96-well round-bottom plates (1×10^5 cells/well) and maintained at 4°C or
treated with 10 mM deoxy glucose and 10 mM sodium azide in PBS (ATP depletion) for 1 h prior
to addition of OVA-loaded coacervates. Final OVA concentration was 1 g/mL for time-
dependent measurements and 10 g/mL for comparison between enantiomers. Cells maintained at
37°C and complete RPMI media served as controls. Soluble OVA and PBS treated cells were used as controls for antigen delivery. Following treatment (2 h, 4 h, 24 h, 48 h, or 72 h), BMDCs were
washed to remove extracellular coacervates and DOBW hybridoma cells (1:5, DC: DOBW) were
overlaid for 16 h. The cells were then centrifuged at 300 × g for 5 min, and the supernatant was
collected for IL-2 quantitation by ELISA according to the manufacturer protocol (Biotechne,
#DY402). The amount of IL-2 produced under each condition was measured.
Inhibition of coacervate uptake was measured by adding the inhibitors 1 h
prior to coacervate treatment for 24 h followed by hybridoma overlay and IL-2 measurements.

| critical concentration (Ccrit) of coacervate formation [1] | Substance | eGFP expression after plasmid delivery (HEK293T cells) | lysosomal processing of DQ-OVA delivered by coacervates (DCs) | IL-2 levels at 4 °C compared to 37 °C controls [2] | IL-2 production compared to (GHGLY)4 at the same antigen dose ([2]; coacervates loaded with 1 μM OVA, pre-treatment 2-72 h) |
| --- | --- | --- | --- | --- | --- |
| 0.5 mM | (GHGLY)4 [GL 20] | robust eGFP expression | Green fluorescent puncta were detected | significantly lower IL-2 levels |  |
| 0.75 mM | (GHGVY)4 [GV 20] | Poor eGFP expression | Green fluorescent puncta were detected | significantly lower IL-2 levels | significantly higher |
